# According to ChEMBL document CHEMBL3885881, “DrugMatrix”:
# Values joined by “and” are separate entries in the source; they are usually repeats but may differ in a detail not shown here. Equal values may be shown once.
# Organism: Rattus norvegicus
# Assay: DrugMatrix - Regimen: Daily Repeat
# Assay type: toxicity, organism-based, Sprague-Dawley
# Set-up: regimen Daily Repeat, gender Male, age 6-8 weeks
# Details: in vivo, ip, route intraperitoneal, vehicle 100 % SALINE; for ABSOLUTE BASOPHIL / ABSOLUTE LYMPHOCYTE / ABSOLUTE MONOCYTE / ABSOLUTE SEGMENTED NEUTROPHIL / BASOPHIL / EOSINOPHIL / ERYTHROCYTE COUNT / HEMATOCRIT / HEMOGLOBIN / LEUKOCYTE COUNT / LYMPHOCYTE / MEAN CORPUSCULAR HEMOGLOBIN / MEAN CORPUSCULAR HEMOGLOBIN CONCENTRATION / MEAN CORPUSCULAR VOLUME / MONOCYTE / NEUTROPHIL / NUCLEATED RED BLOOD CELLS / PLATELET COUNT / ABSOLUTE EOSINOPHIL: tissue Blood; for ALANINE AMINOTRANSFERASE / ALBUMIN / ALKALINE PHOSPHATASE / ASPARTATE AMINOTRANSFERASE / BLOOD UREA NITROGEN / CARBON DIOXIDE / CHLORIDE / CHOLESTEROL / CREATINE PHOSPHOKINASE / CREATININE / GLUCOSE / LACTATE DEHYDROGENASE / LIPASE / PHOSPHORUS / POTASSIUM / SODIUM / TOTAL BILIRUBIN / TOTAL PROTEIN / URIC ACID: tissue Plasma
# [1] = 0 mg/kg, 72 h, dose level Control, time 3 day
# [2] = 0 mg/kg, 120 h, dose level Control, time 5 day
# [3] = 0 mg/kg, […], dose level Control, time 7 day
# [4] = 16 mg/kg, 72 h, dose level Low, time 3 day
# [5] = 16 mg/kg, […], dose level Low, time 7 day
compound,measurement,setting,value
C=CCO [ALLYL ALCOHOL],ABSOLUTE BASOPHIL,[1],0 CELLS/uL
same,ABSOLUTE LYMPHOCYTE,[1],13949.83 CELLS/uL and 6988.5 CELLS/uL
same,ABSOLUTE MONOCYTE,[1],176.17 CELLS/uL and 88 CELLS/uL
same,ABSOLUTE SEGMENTED NEUTROPHIL,[1],1407.33 CELLS/uL and 1041.83 CELLS/uL
same,BASOPHIL,[1],0%
same,EOSINOPHIL,[1],0% and 0.17%
same,ERYTHROCYTE COUNT,[1],5.29 x10E6/uL and 5.73 x10E6/uL
same,HEMATOCRIT,[1],33.5% and 35.87%
same,HEMOGLOBIN,[1],13.47 G/DL and 13.27 G/DL
same,LEUKOCYTE COUNT,[1],15.53 x10E3/uL and 8.13 x10E3/uL
same,LYMPHOCYTE,[1],89.5% and 85.83%
same,MEAN CORPUSCULAR HEMOGLOBIN,[1],25.5 pg and 23.2 pg
same,MEAN CORPUSCULAR HEMOGLOBIN CONCENTRATION,[1],40.27 G/DL and 37 G/DL
same,MEAN CORPUSCULAR VOLUME,[1],63.33 fL and 62.63 fL
same,MONOCYTE,[1],1.17%
same,NEUTROPHIL,[1],9.33% and 12.83%
same,NUCLEATED RED BLOOD CELLS,[1],0 /100WBC
same,PLATELET COUNT,[1],1100 x10E3/uL and 1294.17 x10E3/uL
same,ALANINE AMINOTRANSFERASE,[1],41.5 u/L and 49.17 u/L
same,ALBUMIN,[1],3.78 G/DL and 4.35 G/DL
same,ALKALINE PHOSPHATASE,[1],267.5 u/L and 415.17 u/L
same,ASPARTATE AMINOTRANSFERASE,[1],77.67 u/L and 88.5 u/L
same,BLOOD UREA NITROGEN,[1],13.67 mg/dL and 14.33 mg/dL
same,CARBON DIOXIDE,[1],28.17 mmol/L and 34.83 mmol/L
same,CHLORIDE,[1],100.67 MEQ/L and 98.5 MEQ/L
same,CHOLESTEROL,[1],70.67 mg/dL and 75.83 mg/dL
same,CREATINE PHOSPHOKINASE,[1],341.83 u/L and 271.83 u/L
same,CREATININE,[1],0.15 mg/dL and 0.19 mg/dL
same,GLUCOSE,[1],169 mg/dL and 148.17 mg/dL
same,LACTATE DEHYDROGENASE,[1],138.5 u/L and 166.33 u/L
same,LIPASE,[1],10.33 u/L and 9.2 u/L
same,PHOSPHORUS,[1],9.6 mg/dL and 10.37 mg/dL
same,POTASSIUM,[1],5.69 MEQ/L and 6.16 MEQ/L
same,SODIUM,[1],140.88 MEQ/L and 143.75 MEQ/L
same,TOTAL BILIRUBIN,[1],0.2 mg/dL and 0.18 mg/dL
same,TOTAL PROTEIN,[1],5.95 G/DL and 6.22 G/DL
same,URIC ACID,[1],1.18 mg/dL and 0.92 mg/dL
same,ABSOLUTE BASOPHIL,[2],0 CELLS/uL
same,ABSOLUTE EOSINOPHIL,[2],9.17 CELLS/uL
same,ABSOLUTE LYMPHOCYTE,[2],6359.17 CELLS/uL
same,ABSOLUTE MONOCYTE,[2],87.33 CELLS/uL
same,ABSOLUTE SEGMENTED NEUTROPHIL,[2],894.33 CELLS/uL
same,BASOPHIL,[2],0%
same,EOSINOPHIL,[2],0.17%
same,ERYTHROCYTE COUNT,[2],5.68 x10E6/uL
same,HEMATOCRIT,[2],35.05%
same,HEMOGLOBIN,[2],13.22 G/DL
same,LEUKOCYTE COUNT,[2],7.35 x10E3/uL
same,LYMPHOCYTE,[2],86.33%
same,MEAN CORPUSCULAR HEMOGLOBIN,[2],23.32 pg
same,MEAN CORPUSCULAR HEMOGLOBIN CONCENTRATION,[2],37.72 G/DL
same,MEAN CORPUSCULAR VOLUME,[2],61.82 fL
same,MONOCYTE,[2],1.17%
same,NEUTROPHIL,[2],12.33%
same,NUCLEATED RED BLOOD CELLS,[2],0 /100WBC
same,PLATELET COUNT,[2],1231 x10E3/uL
same,ALANINE AMINOTRANSFERASE,[2],44.5 u/L
same,ALBUMIN,[2],4.47 G/DL
same,ALKALINE PHOSPHATASE,[2],372.33 u/L
same,ASPARTATE AMINOTRANSFERASE,[2],88.67 u/L
same,BLOOD UREA NITROGEN,[2],14.67 mg/dL
same,CARBON DIOXIDE,[2],35.33 mmol/L
same,CHLORIDE,[2],100.6 MEQ/L
same,CHOLESTEROL,[2],75 mg/dL
same,CREATINE PHOSPHOKINASE,[2],303.83 u/L
same,CREATININE,[2],0.16 mg/dL
same,GLUCOSE,[2],135.83 mg/dL
same,LACTATE DEHYDROGENASE,[2],137.17 u/L
same,LIPASE,[2],9.2 u/L
same,PHOSPHORUS,[2],10.42 mg/dL
same,POTASSIUM,[2],5.9 MEQ/L
same,SODIUM,[2],143.7 MEQ/L
same,TOTAL BILIRUBIN,[2],0.18 mg/dL
same,TOTAL PROTEIN,[2],6.42 G/DL
same,URIC ACID,[2],0.78 mg/dL
same,ABSOLUTE BASOPHIL,[3],0 CELLS/uL
same,ABSOLUTE EOSINOPHIL,[3],12.33 CELLS/uL
same,ABSOLUTE LYMPHOCYTE,[3],8726.33 CELLS/uL
same,ABSOLUTE MONOCYTE,[3],135.33 CELLS/uL
same,ABSOLUTE SEGMENTED NEUTROPHIL,[3],559.33 CELLS/uL
same,BASOPHIL,[3],0%
same,EOSINOPHIL,[3],0.17%
same,ERYTHROCYTE COUNT,[3],5.5 x10E6/uL
same,HEMATOCRIT,[3],34.02%
same,HEMOGLOBIN,[3],13.12 G/DL
same,LEUKOCYTE COUNT,[3],9.43 x10E3/uL
same,LYMPHOCYTE,[3],92.67%
same,MEAN CORPUSCULAR HEMOGLOBIN,[3],23.85 pg
same,MEAN CORPUSCULAR HEMOGLOBIN CONCENTRATION,[3],38.57 G/DL
same,MEAN CORPUSCULAR VOLUME,[3],61.83 fL
same,MONOCYTE,[3],1.33%
same,NEUTROPHIL,[3],5.83%
same,NUCLEATED RED BLOOD CELLS,[3],0 /100WBC
same,PLATELET COUNT,[3],1308.83 x10E3/uL
same,ALANINE AMINOTRANSFERASE,[3],56 u/L
same,ALBUMIN,[3],3.7 G/DL
same,ALKALINE PHOSPHATASE,[3],281.17 u/L
same,ASPARTATE AMINOTRANSFERASE,[3],78.33 u/L
same,BLOOD UREA NITROGEN,[3],15 mg/dL
same,CARBON DIOXIDE,[3],30.5 mmol/L
same,CHLORIDE,[3],103.33 MEQ/L
same,CHOLESTEROL,[3],63.83 mg/dL
same,CREATINE PHOSPHOKINASE,[3],253.33 u/L
same,CREATININE,[3],0.2 mg/dL
same,GLUCOSE,[3],151.17 mg/dL
same,LACTATE DEHYDROGENASE,[3],89 u/L
same,LIPASE,[3],10.33 u/L
same,PHOSPHORUS,[3],9.7 mg/dL
same,POTASSIUM,[3],5.46 MEQ/L
same,SODIUM,[3],146.28 MEQ/L
same,TOTAL BILIRUBIN,[3],0.12 mg/dL
same,TOTAL PROTEIN,[3],6.07 G/DL
same,URIC ACID,[3],0.65 mg/dL
same,ABSOLUTE BASOPHIL,[4],0 CELLS/uL
same,ABSOLUTE EOSINOPHIL,[4],0 CELLS/uL
same,ABSOLUTE LYMPHOCYTE,[4],14529.5 CELLS/uL
same,ABSOLUTE MONOCYTE,[4],274 CELLS/uL
same,ABSOLUTE SEGMENTED NEUTROPHIL,[4],1013.17 CELLS/uL
same,BASOPHIL,[4],0%
same,EOSINOPHIL,[4],0%
same,ERYTHROCYTE COUNT,[4],5.55 x10E6/uL
same,HEMATOCRIT,[4],35.25%
same,HEMOGLOBIN,[4],13.98 G/DL
same,LEUKOCYTE COUNT,[4],15.82 x10E3/uL
same,LYMPHOCYTE,[4],91.67%
same,MEAN CORPUSCULAR HEMOGLOBIN,[4],25.2 pg
same,MEAN CORPUSCULAR HEMOGLOBIN CONCENTRATION,[4],39.7 G/DL
same,MEAN CORPUSCULAR VOLUME,[4],63.53 fL
same,MONOCYTE,[4],1.67%
same,NEUTROPHIL,[4],6.67%
same,NUCLEATED RED BLOOD CELLS,[4],0 /100WBC
same,PLATELET COUNT,[4],1167.33 x10E3/uL
same,ALANINE AMINOTRANSFERASE,[4],46.17 u/L
same,ALBUMIN,[4],3.8 G/DL
same,ALKALINE PHOSPHATASE,[4],266.8 u/L
same,ASPARTATE AMINOTRANSFERASE,[4],66.67 u/L
same,BLOOD UREA NITROGEN,[4],13 mg/dL
same,CARBON DIOXIDE,[4],32.5 mmol/L
same,CHLORIDE,[4],100.2 MEQ/L
same,CHOLESTEROL,[4],68.67 mg/dL
same,CREATINE PHOSPHOKINASE,[4],231.17 u/L
same,CREATININE,[4],0.44 mg/dL
same,GLUCOSE,[4],143.67 mg/dL
same,LACTATE DEHYDROGENASE,[4],122.67 u/L
same,LIPASE,[4],8 u/L
same,PHOSPHORUS,[4],8.67 mg/dL
same,POTASSIUM,[4],6.2 MEQ/L
same,SODIUM,[4],141.52 MEQ/L
same,TOTAL BILIRUBIN,[4],0.18 mg/dL
same,TOTAL PROTEIN,[4],5.57 G/DL
same,URIC ACID,[4],1.13 mg/dL
same,ABSOLUTE BASOPHIL,[5],0 CELLS/uL
same,ABSOLUTE EOSINOPHIL,[5],88.33 CELLS/uL
same,ABSOLUTE LYMPHOCYTE,[5],10357.5 CELLS/uL
same,ABSOLUTE MONOCYTE,[5],213 CELLS/uL
same,ABSOLUTE SEGMENTED NEUTROPHIL,[5],574.5 CELLS/uL
same,BASOPHIL,[5],0%
same,EOSINOPHIL,[5],1%
same,ERYTHROCYTE COUNT,[5],5.67 x10E6/uL
same,HEMATOCRIT,[5],35.32%
same,HEMOGLOBIN,[5],13.55 G/DL
same,LEUKOCYTE COUNT,[5],11.23 x10E3/uL
same,LYMPHOCYTE,[5],91.5%
same,MEAN CORPUSCULAR HEMOGLOBIN,[5],23.88 pg
same,MEAN CORPUSCULAR HEMOGLOBIN CONCENTRATION,[5],38.38 G/DL
same,MEAN CORPUSCULAR VOLUME,[5],62.35 fL
same,MONOCYTE,[5],1.83%
same,NEUTROPHIL,[5],5.67%
same,NUCLEATED RED BLOOD CELLS,[5],0 /100WBC
same,PLATELET COUNT,[5],1370 x10E3/uL
